These are literature values, as cited in patent publication US10912848B2, “Dual-purpose PAT/ultrasound contrast agent bound with nanoparticles containing drug and method for preparing same” (IMGT CO, LTD., priority 2014, dated 2021).

For this data set the following is noted: 25° C.

The structures appear in SMILES notation. Where two headings read alike, the source gives them in different places.

With `CC(=O)Oc1ccccc1C(=O)O` [aspirin], the “volume of solvent required to dissolve 1 g of drug” value was 300 mL (H2O) and 5 mL (ethanol).
